Experimental data taken from US20240317683A1, “METHODS OF TREATING MOOD DISORDERS” (priority 2020, published 2024).
Counter-ions that a name gives are not always drawn.

Tests used:
[1] = Metabolic stability in human liver microsomes (HLM); format: in vitro ADME; details: both sexes, pooled human liver microsomes, pH 7.4, NADPH
Description: HLM Stability. Pooled HLM from adult male and female donors (Corning 452117) were used. Microsomal incubations were carried out in multi-well plates. […] Control incubations were performed by replacing the NADPH-cofactor system with PBS. Test compounds (1 μM, final solvent concentration 1.0%) were incubated with microsomes at 37° C. with constant shaking. Six time points over 60 minutes were analyzed, with 60 μL aliquots of the reaction mixture being drawn at each time point.

[2] = target: 5-HT2B (Homo sapiens (Human), UniProt P41595); experiment: FLIPR Ca2+ flux agonist assay, 5-HT2B; format: cell-based; details: for 5-HT2B % Act @ Max Dose: Ca2+ flux, HEK293
Sequence of 5-HT2B (P41595 whole entry, looked up, species assumed): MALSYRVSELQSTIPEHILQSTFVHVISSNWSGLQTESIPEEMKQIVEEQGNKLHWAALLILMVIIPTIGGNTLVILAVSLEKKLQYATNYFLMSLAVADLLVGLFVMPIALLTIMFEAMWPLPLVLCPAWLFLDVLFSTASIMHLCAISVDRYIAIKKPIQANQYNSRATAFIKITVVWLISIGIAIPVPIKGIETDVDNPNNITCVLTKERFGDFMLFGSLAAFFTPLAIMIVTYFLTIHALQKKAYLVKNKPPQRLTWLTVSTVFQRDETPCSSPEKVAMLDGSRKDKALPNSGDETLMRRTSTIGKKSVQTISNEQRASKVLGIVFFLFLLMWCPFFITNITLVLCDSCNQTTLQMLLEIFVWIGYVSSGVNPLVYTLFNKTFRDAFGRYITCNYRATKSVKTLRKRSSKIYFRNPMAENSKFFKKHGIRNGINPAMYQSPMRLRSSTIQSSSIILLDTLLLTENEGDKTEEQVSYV
Description: A solution of 250 mM probenecid in 1 mL FLIPR assay buffer was prepared fresh. This was combined with a fluorescent dye (Fluo-4 Direct™) to make a final assay concentration of 2.5 mM. […] The fluorescent dye was then added to the assay plate along with assay buffer to a final volume of 40 μL. The cell plate was incubated for 50 min at 37° C. and 5% CO2 and placed into the FLIPR Tetra along with the compound plate. 10 μL of references and compounds were then transferred from the compound plate into the cell plate and the fluorescent signal was read.

[3] = test system: C57BL/6 mice; experiment: Head twitch response (HTR) in mice; format: in vivo; details: for Average HTR: 20 mins; for maximal effect in HTR: SC, maximal over tested doses
Description: Animals. Adult male C57BL/6 mice, aged 8 weeks (body weight 20-25 g) were used in these experiments. Animals were housed under controlled temperatures and 12-hour light/dark cycles (lights on between 07:00-19:00 h), with ad libitum food and water. The protocol was approved by the Eurofins Advinus Institutional Animal Care and Use Committee. This study was carried out in strict accordance with the recommendations in the Guide for the Care and Use of Laboratory Animals of the National Institutes of Health. All efforts were made to minimize suffering.
Drugs and Drug administration. Compounds 3 and 4 were prepared as described above. All other compounds were commercially obtained. Test compounds were used as the hydrogen fumarate (1 and 2) or hydrochloride (DOI, 3, and 4) salts. Drugs were dissolved in a vehicle consisting of normal saline and administered subcutaneously (SC) in a volume of 10 ml/kg. Test compounds were administered at 5 doses per compound (0.1 to 100 mg/kg, as indicated, calculated based on the free base) using N=6 animals/group. […] For blockade experiments, MDL100907 (0.1 mg/kg, SC) was administered 10 mins prior to the test compound.
Procedure. Mice were administered one dose of a test drug (or vehicle) s.c. and immediately placed into a small open field for behavioral observation. Animals were observed continuously for 20 mins and the number of HTRs were counted by an observer blind to the treatment condition.
Statistical analysis. The data points shown in Table 11 are the mean ±standard error of the mean (SEM). Analysis was performed using GraphPad Prism 9.

[4] = Stability in mouse brain homogenate; format: in vitro ADME, CD-1 mice; details: for half-life at 1 μM: male, CD-1; for half-life at 1 μM / % Compound Remaining (after 120 min): mouse brain homogenate, 37° C., 1 μM
Description: Mouse Brain Homogenate Stability. Frozen mouse brain homogenate (pooled from male CD-1 mice, BioreclamationIVT, MSE00BRAINMZA) was thawed in a water bath at 37° C. immediately prior to use. Positive controls and test compounds (final concentration in incubation medium=1 μM for test compounds and 2 μM for controls, all with 2% DMSO) were incubated in duplicate for each time point (0, 10, 30, 60, and 120 min) in the mouse brain homogenate at a total reaction volume of […] at 37° C. At the end of each incubation period, reactions were immediately quenched with 400 μL of acetonitrile containing internal standard (200 ng/mL tolbutamine and 200 ng/ml labetalol) and mixed thoroughly. Plates were then sealed, shaken for 20 min, and centrifuged at 4,000 rpm and 4° C. for 20 min. Aliquots of 50 μL of each supernatant were diluted into 100 μL of water and the mixtures were then shaken again for 10 min.

[5] = target: serotonin transporter (SERT) (Homo sapiens (Human), UniProt P31645); experiment: SERT fluorescent substrate uptake inhibition in transfected HEK293 cells; format: cell-based; details: HEK293 cells expressing SERT
Description: SERT Uptake Inhibition. The ability of test compounds to block monoamine uptake by SERT was determined using the Neurotransmitter Transporter Uptake Assay Kit manufactured by Molecular Devices (Cat #R8173). Briefly, stably transfected HEK293 cells expressing SERT were grown and plated into 384-well plates at a concentration of 20,000 cells per well. Plates were then incubated for 16-20 h at 37° C. and 5% CO2. The medium was then aspirated and replaced with 25 μL of assay buffer (20 mM HEPES in HBSS, containing 0.1% BSA) containing the test compounds at the appropriate concentrations. Plates were then centrifuged at 300 rpm for 15 s and then incubated at 37° C. for 30 minutes. At this time, 25 μL of the proprietary fluorescent dye solution was added, the plates were incubated at 37°° C. for 60 minutes, and then fluorescence was quantified on a plate reader (excitation wavelength =440 nm, emission wavelength=520 nm). The proprietary dye solution contains a mixture of 1) a fluorescent dye (dye 1) that mimics the endogenous substrate of SERT and is thereby actively transported to the intracellular compartment in the absence of an inhibitor and 2) a masking dye that inhibits the fluorescence of dye 1 in the extracellular compartment. Therefore, the overall fluorescence of the system increases as the fluorescent dye is transported into the cells.

SMILES	half-life at 1 μM [1]	microsomal CLint at 1 μM [1]	EC50 [2]	5-HT2B % Act @ Max Dose [2]	Average HTR ([3]; 0.1 mg/kg SC)	Average HTR ([3]; 1 mg/kg SC)	Average HTR ([3]; 10 mg/kg SC)	total number of HTR counts vs. vehicle (FIG. 2) ([3]; Cmp 4 alone, Dunnett's test, P<0.0001)	maximal effect in HTR [3]	stability in mouse brain homogenate (in words) [4]	half-life at 1 μM [4]	% Compound Remaining (after 120 min) [4]	IC50 [5]	SERT % Inhibition @ Max Dose [5]	Average HTR ([3]; 100 mg/kg SC)
CCN(C)CCc1c[nH]c2ccc(F)cc12 [Compound 4, N-ethyl-2-(5-fluoro-1H-indol-3-yl)-N-methylethan-1-amine hydrochloride]	47.9 min	28.9 µL/min/mg	> 10 µM	0.79%	5.00	18.333	9.333	significantly different from vehicle	27.67 head twitches/20 min	intermediate stability	54.3 min	20.7%	0.419 µM	77.45%	–
CCN(C)CCc1c[nH]c2ccccc12 [Compound 2, methylethyltryptamine]	126 min	11.2 µL/min/mg	–	22.5%	–	3.667	2.500	–	6.00 head twitches/20 min	intermediate stability	123 min	47.8%	9.13 µM	62.06%	0.500
CN(C)CCc1c[nH]c2cccc(O)c12 [Psilocin, psilocin, reference compound]	110 min	–	–	1.44%	–	–	–	–	–	high stability	> 289 min	97.6%	2.04 µM	88.15%	–
CCCN(CC)CCc1c[nH]c2ccc(F)cc12 [Compound 3, N-ethyl-N-(2-(5-fluoro-1H-indol-3-yl)ethyl) propan-1-amine hydrochloride]	13 min	106 µL/min/mg	0.0154 µM	64.64%	12.5	29.333	26.333	–	29.33 head twitches/20 min	high stability	> 289 min	76.7%	–	–	–
CN(C)CCc1c[nH]c2ccc(F)cc12 [Compound 5, 2-(5-fluoro-1H-indol-3-yl)-N,N-dimethylethan-1-amine hydrochloride]	4.6 min	300 µL/min/mg	–	–	–	–	–	–	–	highly unstable	3.1 min	0.0%	–	–	–
CN(C)CCc1c[nH]c2ccccc12 [DMT, N,N-dimethyltryptamine, reference compound]	7 min	–	–	10.4%	–	–	–	–	–	highly unstable	6.4 min	0.0%	2.96 µM	67.92%	–
CCN(C)CCc1c[nH]c2cccc(O)c12 [Compound 6]	> 145 min	< 9.6 µL/min/mg	–	1.09%	–	–	–	–	–	intermediate stability	45.8 min	16.7%	3.27 µM	84.02%	–
CCCN(CC)CCc1c[nH]c2ccccc12 [Compound 1, ethylpropyltryptamine]	21.7 min	64.3 µL/min/mg	0.0403 µM	80.4%	–	14.667	8.000	–	14.7 head twitches/20 min	high stability	> 289 min	113.8%	0.75 µM	75.35%	4.500
